Assay results as given in EPA's ToxRefDB 2.

Columns and labels:
[1] = system: rat; settings: Sub-acute repeat dose toxicity, Oral, Gavage/Intubation, dose end: 4 day, group: systemic
[2] = system: rat; settings: Sub-acute repeat dose toxicity, Oral, Gavage/Intubation, dose end: 4 day, group: systemic; remark: listed apart in the source
[3] = system: rat; settings: Sub-acute repeat dose toxicity, Oral, Gavage/Intubation, dose end: 4 day, group: systemic; remark: listed apart in the source
[4] = system: rat; settings: Sub-acute repeat dose toxicity, Oral, Gavage/Intubation, dose end: 4 day, group: systemic; remark: listed apart in the source
[5] = system: rat; settings: Subchronic oral toxicity in rodents, fischer, Feed, dose end: 14 week, group: systemic
[6] = system: rat; settings: Carcinogenicity, fischer, Oral, Feed, dose end: 2 year, group: systemic
[7] = system: mouse; settings: Carcinogenicity, b6c3f1, Oral, Feed, dose end: 2 year, group: systemic
[8] = system: mouse; settings: Subchronic oral toxicity in rodents, b6c3f1, Feed, dose end: 14 week, group: systemic, systemic / hematology / mean corpuscular (cell) volume (mcv) / mean corpuscular (cell) volume (mcv) + systemic / hematology / mean …
[9] = system: rat; settings: Multigenerational reproductive toxicity study, sprague dawley, Oral, Feed, dose end: 2 generation
[10] = system: mouse; settings: Carcinogenicity, cd1, Oral, Feed, dose end: 78 week, group: systemic
[11] = system: rat; settings: Multigenerational reproductive toxicity study, sprague dawley, Oral, Feed, dose end: 3 generation
[12] = system: rat; settings: Combined chronic toxicity/carcinogenicity, sprague dawley, Oral, Feed, dose end: 24 month, group: systemic
[13] = system: rat; settings: Combined chronic toxicity/carcinogenicity, sprague dawley, Oral, Feed, dose end: 24 month
[14] = system: dog; settings: Chronic toxicity; beagle; Oral; Gavage/Intubation; dose end: 12 month; group: systemic; systemic / clinical chemistry / alkaline phosphatase (alp/alk) / alkaline phosphatase (alp/alk) + systemic / clinical chemistry / urea …
[15] = system: rat; settings: Prenatal developmental toxicity study, wistar, Oral, Gavage/Intubation, dose end: 16 GD
[16] = system: rabbit; settings: Prenatal developmental toxicity study, himalayan, Oral, Gavage/Intubation, dose end: 18 GD, group: maternal
[17] = system: rat; settings: Multigenerational reproductive toxicity study, WIST Han Ibm: WIST ISPF, Oral, Feed, dose end: 2 generation
[18] = system: dog; settings: Chronic toxicity, beagle, Oral, Feed, dose end: 52 week, group: systemic
[19] = systemic / in life observation / body weight / body weight + systemic / in life observation / clinical signs / abnormal respiratory sounds…
[20] = systemic / organ weight / liver / absolute
[21] = systemic / in life observation / clinical signs / abnormal respiratory sounds + systemic / in life observation / clinical signs / fur (…
[22] = systemic / organ weight / liver / absolute + systemic / in life observation / clinical signs / salivation + systemic / pathology microscopic…
[23] = systemic / in life observation / body weight / body weight + systemic / organ weight / liver / absolute + systemic / in life observation / …
[24] = systemic / clinical chemistry / alanine aminotransferase (alt/sgpt) / alanine aminotransferase (alt/sgpt) + systemic / clinical chemistry / …
[25] = systemic / clinical chemistry / bile acids / bile acids + systemic / in life observation / body weight / body weight + systemic / in life …
[26] = systemic / in life observation / body weight / body weight
[27] = systemic / in life observation / body weight / body weight + systemic / in life observation / food consumption / food consumption
[28] = systemic / in life observation / body weight / body weight + systemic / pathology microscopic / nose / pigmentation
[29] = group: cholinesterase, cholinesterase / cholinesterase / cholinesterase / erythrocyte cholinesterase (che)
[30] = group: offspring, systemic / in life observation / body weight / offspring (pup) weight
[31] = group: offspring, systemic / in life observation / body weight / offspring (pup) weight + developmental / offspring survival late / lactation index / …
[32] = group: parental, systemic / in life observation / body weight / body weight + systemic / in life observation / body weight / body weight gain + systemic / in…
[33] = group: reproductive, reproductive / offspring survival early / litter size / litter size
[34] = systemic / in life observation / body weight / body weight gain + systemic / pathology microscopic / ovary / cyst + systemic / in life …
[35] = group: offspring, systemic / in life observation / body weight / offspring (pup) weight + developmental / offspring survival late / viability index / …
[36] = group: parental, systemic / in life observation / body weight / body weight + systemic / in life observation / body weight / body weight gain
[37] = group: reproductive, reproductive / offspring survival early / live fetuses / live fetuses
[38] = group: cholinesterase, cholinesterase / cholinesterase / cholinesterase / brain cholinesterase (che) + cholinesterase / cholinesterase / cholinesterase / …
[39] = group: systemic, systemic / pathology microscopic / nerve / cholesterol cleft(s) + systemic / pathology microscopic / nerve / mineralization + systemic / …
[40] = group: developmental, systemic / in life observation / body weight / fetal weight + systemic / in life observation / body weight / offspring (pup) weight gain
[41] = group: developmental, systemic / in life observation / body weight / fetal weight + systemic / in life observation / body weight / offspring (pup) weight gain + …
[42] = group: maternal, systemic / in life observation / body weight / body weight gain + systemic / in life observation / food consumption / food efficiency
[43] = group: maternal, systemic / in life observation / body weight / body weight gain + systemic / in life observation / food consumption / food efficiency + …
[44] = reproductive / reproductive performance / aborted / aborted + systemic / in life observation / body weight / body weight gain + systemic / …
[45] = group: offspring, systemic / in life observation / body weight / offspring (pup) weight + systemic / in life observation / body weight / offspring (pup) …
[46] = group: parental, systemic / in life observation / body weight / body weight + systemic / in life observation / body weight / body weight gain + systemic / …
[47] = systemic / clinical chemistry / alkaline phosphatase (alp/alk) / alkaline phosphatase (alp/alk) + systemic / organ weight / liver / absolute…

SMILES: CNCc1ccc(S(C)(=O)=O)cc1Oc1ccc2c(c1)CCCC2
- LOAEL [1, 19]: > 500 mg/kg/day
- NOAEL [1, 19]: ≥ 500 mg/kg/day
- LEL [1, 20]: 30 mg/kg/day
- NEL [1, 20]: < 30 mg/kg/day
- LOAEL [2, 21]: > 500 mg/kg/day
- NEL [2, 21]: 30 mg/kg/day
- NOAEL [2, 21]: ≥ 500 mg/kg/day
- LEL ([2]; systemic / in life observation / clinical signs / salivation): 100 mg/kg/day
- LEL [3, 20]: 30 mg/kg/day
- NEL [3, 20]: < 30 mg/kg/day
- LOAEL [3, 22]: > 100 mg/kg/day
- NOAEL [3, 22]: ≥ 100 mg/kg/day
- LOAEL [4, 23]: > 500 mg/kg/day
- NOAEL [4, 23]: ≥ 500 mg/kg/day
- LEL [4, 20]: 30 mg/kg/day
- NEL [4, 20]: < 30 mg/kg/day

SMILES: O=C/C=C/c1ccccc1 [(2E)-3-Phenylprop-2-enal]
- LOAEL [5, 24]: > 3100 mg/kg/day
- NOAEL [5, 24]: ≥ 3100 mg/kg/day
- LEL [5, 25]: 275 mg/kg/day
- NEL [5, 25]: < 275 mg/kg/day
- LOAEL [6, 26]: 200 mg/kg/day
- LEL [6, 27]: 100 mg/kg/day
- NEL [6, 27]: 50 mg/kg/day
- NOAEL [6, 27]: 100 mg/kg/day
- LOAEL [7, 26]: 270 mg/kg/day
- LEL [7, 28]: 270 mg/kg/day
- NEL [7, 28]: 125 mg/kg/day
- NOAEL [7, 28]: 125 mg/kg/day
- LEL [8]: 1320 mg/kg/day
- LOAEL [8]: > 5200 mg/kg/day
- NEL [8]: 650 mg/kg/day
- NOAEL [8]: ≥ 5200 mg/kg/day

SMILES: CCSC(=O)N(CC)C1CCCCC1 [Cycloate]
- LEL [9, 29]: 50 mg/kg/day
- LOAEL [9, 29]: > 50 mg/kg/day
- NEL [9, 29]: 20 mg/kg/day
- NOAEL [9, 29]: ≥ 50 mg/kg/day
- LEL [9, 30]: 20 mg/kg/day
- LOAEL [9, 30]: 20 mg/kg/day
- NEL [9, 31]: 2.5 mg/kg/day
- NOAEL [9, 31]: 2.5 mg/kg/day
- LEL [9, 32]: 20 mg/kg/day
- LOAEL [9, 32]: 20 mg/kg/day
- NEL [9, 32]: 2.5 mg/kg/day
- NOAEL [9, 32]: 2.5 mg/kg/day
- LEL [9, 33]: 50 mg/kg/day
- LOAEL [9, 33]: 50 mg/kg/day
- NEL [9, 33]: 20 mg/kg/day
- NOAEL [9, 33]: 20 mg/kg/day
- LOAEL ([10]; systemic / in life observation / body weight / body weight gain + systemic / pathology microscopic / ovary / cyst): 167 mg/kg/day
- LEL [10, 34]: 167 mg/kg/day
- NEL [10, 34]: 49 mg/kg/day
- NOAEL [10, 34]: 49 mg/kg/day
- LEL [11, 30]: 24 mg/kg/day
- LOAEL [11, 30]: 24 mg/kg/day
- NEL [11, 35]: 8 mg/kg/day
- NOAEL [11, 35]: 8 mg/kg/day
- LEL [11, 36]: 24 mg/kg/day
- LOAEL [11, 36]: 24 mg/kg/day
- NEL [11, 36]: 8 mg/kg/day
- NOAEL [11, 36]: 8 mg/kg/day
- LEL [11, 37]: 72 mg/kg/day
- LOAEL [11, 37]: > 72 mg/kg/day
- NEL [11, 37]: 24 mg/kg/day
- NOAEL [11, 37]: ≥ 72 mg/kg/day
- LEL ([12]; systemic / organ weight / heart / absolute): 2.4 mg/kg/day
- NEL ([12]; systemic / organ weight / heart / absolute + systemic / pathology microscopic / skeletal muscle / atrophy + systemic / pathology microscopic…): 0.4 mg/kg/day
- LOAEL ([12]; systemic / pathology microscopic / spinal cord / atrophy + systemic / pathology microscopic / spinal cord / degeneration): 3.1 mg/kg/day
- NOAEL ([12]; systemic / pathology microscopic / spinal cord / atrophy + systemic / pathology microscopic / spinal cord / degeneration + systemic / in …): 0.5 mg/kg/day
- LEL [13, 38]: 8 mg/kg/day
- LOAEL [13, 38]: 8 mg/kg/day
- NEL [13, 38]: < 8 mg/kg/day
- NOAEL [13, 38]: < 8 mg/kg/day
- LEL [13, 39]: 8 mg/kg/day
- LOAEL [13, 39]: 8 mg/kg/day
- NEL [13, 39]: < 8 mg/kg/day
- NOAEL [13, 39]: < 8 mg/kg/day
- LEL [14]: 50 mg/kg/day
- LOAEL [14]: 50 mg/kg/day
- NEL [14]: 0.5 mg/kg/day
- NOAEL [14]: 0.5 mg/kg/day

SMILES: CCOC(=O)C1=NN(c2ccc(Cl)cc2Cl)C(C)(C(=O)OCC)C1 (centres undefined) [Mefenpyr-diethyl]
- LOAEL [15, 40]: 1000 mg/kg/day
- NOAEL [15, 40]: < 1000 mg/kg/day
- LEL [15, 41]: 1000 mg/kg/day
- NEL [15, 41]: < 1000 mg/kg/day
- LOAEL [15, 42]: 1000 mg/kg/day
- NOAEL [15, 42]: < 1000 mg/kg/day
- LEL [15, 43]: 1000 mg/kg/day
- NEL [15, 43]: < 1000 mg/kg/day
- LOAEL ([16]; reproductive / reproductive performance / aborted / aborted + reproductive / offspring survival early / live fetuses / live fetuses): 250 mg/kg/day
- LEL ([16]; reproductive / reproductive performance / aborted / aborted + reproductive / offspring survival early / live fetuses / live fetuses + …): 250 mg/kg/day
- NEL [16, 44]: 100 mg/kg/day
- NOAEL [16, 44]: 100 mg/kg/day
- LEL [17, 45]: 250 mg/kg/day
- LOAEL [17, 45]: 250 mg/kg/day
- NEL [17, 45]: 50 mg/kg/day
- NOAEL [17, 45]: 50 mg/kg/day
- LEL [17, 46]: 250 mg/kg/day
- LOAEL [17, 46]: 250 mg/kg/day
- NEL [17, 46]: 50 mg/kg/day
- NOAEL [17, 46]: 50 mg/kg/day
- LOAEL [18, 47]: 260 mg/kg/day
- NOAEL [18, 47]: 51.4 mg/kg/day
- LEL ([18]; systemic / organ weight / liver / relative to body weight): 57.6 mg/kg/day
- NEL ([18]; systemic / organ weight / liver / relative to body weight + systemic / clinical chemistry / alkaline phosphatase (alp/alk) / alkaline …): 11.1 mg/kg/day
